This is an account of results in patent US20260083851A1 (AVILAR THERAPEUTICS, INC., priority 2022, published 2026).

The target of this experiment is T1, ASGP receptor (biotinylated ASGPR) (Homo sapiens, UniProt P07306).
T1 construct: biotin (biotinylated)
T1 sequence (P07306 1-291): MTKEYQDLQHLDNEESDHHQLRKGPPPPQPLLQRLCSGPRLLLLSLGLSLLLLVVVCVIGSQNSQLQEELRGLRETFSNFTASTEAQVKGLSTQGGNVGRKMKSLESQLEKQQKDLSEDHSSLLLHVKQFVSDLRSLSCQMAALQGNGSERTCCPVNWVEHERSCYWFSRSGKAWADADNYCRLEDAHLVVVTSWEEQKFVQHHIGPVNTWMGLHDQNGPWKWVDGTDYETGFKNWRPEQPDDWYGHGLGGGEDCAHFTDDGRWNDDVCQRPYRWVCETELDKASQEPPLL
It counts as binding. Particulars: SPR, Biacore 8K, 25° C.; Table 1A; read-out: ASGPR KD.

The structures appear in SMILES notation. pKd: −log10 of the molar value. Some results are limits rather than exact numbers.

Turning to `O=C(O)c1cc2ccc1CCc1ccc(c(C(=O)NC[C@H]3OC[C@H](Nc4cncc(C(F)(F)F)n4)[C@@H](O)[C@H]3O)c1)CC2` [A66, 4^3-((((2R,3R,4R,5S)-3,4-dihydroxy-5-((6-(trifluoromethyl)pyrazin-2-yl)amino)tetrahydro-2H-pyran-2-yl)methyl)carbamoyl)-1,4(1,4)-dibenzenacyclohexaphane-1^2-carboxylic acid], the pKd is over 5.00. The result for `O=C(NC[C@H]1OC[C@H](Nc2cncc(C(F)(F)F)n2)[C@@H](O)[C@H]1O)c1ccc(-c2ccccc2)cn1` [A67, N-(((2R,3R,4R,5S)-3,4-dihydroxy-5-((6-(trifluoromethyl)pyrazin-2-yl)amino)tetrahydro-2H-pyran-2-yl)methyl)-5-phenylpicolinamide] reads over 5.00; that for `O[C@@H]1[C@H](O)[C@@H](Nc2cncc(C(F)(F)F)n2)CO[C@@H]1CN1CCCNCC1` [A68, (2R,3R,4R,5S)-2-((1,4-diazepan-1-yl)methyl)-5-((6-(trifluoromethyl)pyrazin-2-yl)amino)tetrahydro-2H-pyran-3,4-diol], over 5.00. The result for `O=C(NC[C@H]1OC[C@H](Nc2cncc(C(F)(F)F)n2)[C@@H](O)[C@H]1O)c1ccc2[nH]cnc2n1` [A69, N-(((2R,3R,4R,5S)-3,4-dihydroxy-5-((6-(trifluoromethyl)pyrazin-2-yl)amino)tetrahydro-2H-pyran-2-yl)methyl)-1H-imidazo[4,5-b]pyridine-5-carboxamide] reads over 5.00; that for `O[C@@H]1[C@H](O)[C@@H](Nc2cncc(C(F)(F)F)n2)CO[C@@H]1CN1CCCCCC1` [A70, (2R,3R,4R,5S)-2-(azepan-1-ylmethyl)-5-((6-(trifluoromethyl)pyrazin-2-yl)amino)tetrahydro-2H-pyran-3,4-diol], over 5.00; that for `O=C(NC[C@H]1OC[C@H](Nc2cncc(C(F)(F)F)n2)[C@@H](O)[C@H]1O)c1cnc2ccccc2n1` [A71, N-(((2R,3R,4R,5S)-3,4-dihydroxy-5-((6-(trifluoromethyl)pyrazin-2-yl)amino)tetrahydro-2H-pyran-2-yl)methyl)quinoxaline-2-carboxamide], over 5.00. Then `COC(=O)c1cnc(C(=O)NC[C@H]2OC[C@H](Nc3cncc(C(F)(F)F)n3)[C@@H](O)[C@H]2O)nc1` [A72, methyl 2-((((2R,3R,4R,5S)-3,4-dihydroxy-5-((6-(trifluoromethyl)pyrazin-2-yl)amino)tetrahydro-2H-pyran-2-yl)methyl)carbamoyl)pyrimidine-5-carboxylate], with over 5.00; and `O[C@@H]1[C@H](O)[C@@H](Nc2cncc(C(F)(F)F)n2)CO[C@@H]1CN1CCCCCCC1` [A73, (2R,3R,4R,5S)-2-(azocan-1-ylmethyl)-5-((6-(trifluoromethyl)pyrazin-2-yl)amino)tetrahydro-2H-pyran-3,4-diol], with over 5.00; and `O=C(NC[C@H]1OC[C@H](Nc2cncc(C(F)(F)F)n2)[C@@H](O)[C@H]1O)c1ccccn1` [A74, N-(((2R,3R,4R,5S)-3,4-dihydroxy-5-((6-(trifluoromethyl)pyrazin-2-yl)amino)tetrahydro-2H-pyran-2-yl)methyl)picolinamide], with over 5.00. As to `O=C(NC[C@H]1OC[C@H](Nc2cncc(C(F)(F)F)n2)[C@@H](O)[C@H]1O)c1ncc(-c2ccccc2)cn1` [A75, N-(((2R,3R,4R,5S)-3,4-dihydroxy-5-((6-(trifluoromethyl)pyrazin-2-yl)amino)tetrahydro-2H-pyran-2-yl)methyl)-5-phenylpyrimidine-2-carboxamide], the pKd is over 5.00. The result for `O=C(NC[C@H]1OC[C@H](Nc2cncc(C(F)(F)F)n2)[C@@H](O)[C@H]1O)c1cnc2c(c1)CCNC2` [A76, N-(((2R,3R,4R,5S)-3,4-dihydroxy-5-((6-(trifluoromethyl)pyrazin-2-yl)amino)tetrahydro-2H-pyran-2-yl)methyl)-5,6,7,8-tetrahydro-1,7-naphthyridine-3-carboxamide] reads over 5.00; that for `O=C(NC[C@H]1OC[C@H](Nc2cncc(C(F)(F)F)n2)[C@@H](O)[C@H]1O)c1ccc2c(n1)CCNC2` [A77, N-(((2R,3R,4R,5S)-3,4-dihydroxy-5-((6-(trifluoromethyl)pyrazin-2-yl)amino)tetrahydro-2H-pyran-2-yl)methyl)-5,6,7,8-tetrahydro-1,6-naphthyridine-2-carboxamide], over 5.00; that for `O=C(NC[C@H]1OC[C@H](Nc2cncc(C(F)(F)F)n2)[C@@H](O)[C@H]1O)c1ncc2cc[nH]c2n1` [A78, N-(((2R,3R,4R,5S)-3,4-dihydroxy-5-((6-(trifluoromethyl)pyrazin-2-yl)amino)tetrahydro-2H-pyran-2-yl)methyl)-7H-pyrrolo[2,3-d]pyrimidine-2-carboxamide], over 5.00.

As to `O=C(NC[C@H]1OC[C@H](Nc2cncc(C(F)(F)F)n2)[C@@H](O)[C@H]1O)c1cnc2[nH]cnc2c1` [A79, N-(((2R,3R,4R,5S)-3,4-dihydroxy-5-((6-(trifluoromethyl)pyrazin-2-yl)amino)tetrahydro-2H-pyran-2-yl)methyl)-3H-imidazo[4,5-b]pyridine-6-carboxamide], the negative logarithm of the Kd (pKd) was over 5.00. Then `O=C(NC[C@H]1OC[C@H](Nc2cncc(C(F)(F)F)n2)[C@@H](O)[C@H]1O)c1ccncc1` [A80, N-(((2R,3R,4R,5S)-3,4-dihydroxy-5-((6-(trifluoromethyl)pyrazin-2-yl)amino)tetrahydro-2H-pyran-2-yl)methyl)isonicotinamide], with over 5.00; and `O=C(NC[C@H]1OC[C@H](Nc2cncc(C(F)(F)F)n2)[C@@H](O)[C@H]1O)c1ncc2ccccc2n1` [A81, N-(((2R,3R,4R,5S)-3,4-dihydroxy-5-((6-(trifluoromethyl)pyrazin-2-yl)amino)tetrahydro-2H-pyran-2-yl)methyl)quinazoline-2-carboxamide], with over 5.00.

As for `O=C(NC[C@H]1OC[C@H](Nc2cncc(C(F)(F)F)n2)[C@@H](O)[C@H]1O)c1cnc2cc[nH]c2n1` [A82, N-(((2R,3R,4R,5S)-3,4-dihydroxy-5-((6-(trifluoromethyl)pyrazin-2-yl)amino)tetrahydro-2H-pyran-2-yl)methyl)-5H-pyrrolo[2,3-b]pyrazine-3-carboxamide], the pKd is over 5.00. Then `O=C(NC[C@H]1OC[C@H](Nc2cncc(C(F)(F)F)n2)[C@@H](O)[C@H]1O)c1cnc(-c2ccccc2)cn1` [A83, N-(((2R,3R,4R,5 S)-3,4-dihydroxy-5-((6-(trifluoromethyl)pyrazin-2-yl)amino)tetrahydro-2H-pyran-2-yl)methyl)-5-phenylpyrazine-2-carboxamide], with over 5.00; and `O=C(O)c1cnc(C(=O)NC[C@H]2OC[C@H](Nc3cncc(C(F)(F)F)n3)[C@@H](O)[C@H]2O)nc1` [A84, 2-((((2R,3R,4R,5S)-3,4-dihydroxy-5-((6-(trifluoromethyl)pyrazin-2-yl)amino)tetrahydro-2H-pyran-2-yl)methyl)carbamoyl)pyrimidine-5-carboxylic acid], with over 5.00.

With `O[C@@H]1[C@H](O)[C@@H](Nc2cncc(C(F)(F)F)n2)CO[C@@H]1CNc1ncncn1` [A85, (2R,3R,4R,5S)-2-(((1,3,5-triazin-2-yl)amino)methyl)-5-((6-(trifluoromethyl)pyrazin-2-yl)amino)tetrahydro-2H-pyran-3,4-diol], the negative-log Kd (pKd) was over 5.00. The result for `O=C(NC[C@H]1OC[C@H](Nc2cncc(C(F)(F)F)n2)[C@@H](O)[C@H]1O)c1ncc2c(n1)CCNC2` [A86, N-(((2R,3R,4R,5S)-3,4-dihydroxy-5-((6-(trifluoromethyl)pyrazin-2-yl)amino)tetrahydro-2H-pyran-2-yl)methyl)-5,6,7,8-tetrahydropyrido[4,3-d]pyrimidine-2-carboxamide] reads over 5.00; that for `[N-]=[N+]=NCCCCCC(=O)NC(COCCC(=O)NCCOCCOCCOCCOC[C@H]1OC[C@H](Nc2cncc(C(F)(F)F)n2)[C@@H](O)[C@H]1O)(COCCC(=O)NCCOCCOCCOCCOC[C@H]1OC[C@H](Nc2cncc(C(F)(F)F)n2)[C@@H](O)[C@H]1O)COCCC(=O)NCCOCCOCCOCCOC[C@H]1OC[C@H](Nc2cncc(C(F)(F)F)n2)[C@@H](O)[C@H]1O` [A87, 3,3′-((2-(6-azidohexanamido)-2-(1-((2R,3R,4R,5S)-3,4-dihydroxy-5-((6-(trifluoromethyl)pyrazin-2-yl)amino)tetrahydro-2H-pyran-2-yl)-15-oxo-2,5,8,11,18-pentaoxa-14-azanonadecan-19-yl)propane-1,3-diyl)bis(oxy))bis(N-(1-((2R,3R,4R,5S)-3,4-dihydroxy-5-((6-(trifluoromethyl)pyrazin-2-yl)amino)tetrahydro-2H-pyran-2-yl)-2,5,8,11-tetraoxatridecan-13-yl)propanamide)], over 5.00; that for `O=C(NC[C@H]1OC[C@H](Nc2cncc(C(F)(F)F)n2)[C@@H](O)[C@H]1O)c1ccc2c(n1)CCCN2` [A88, N-(((2R,3R,4R,5S)-3,4-dihydroxy-5-((6-(trifluoromethyl)pyrazin-2-yl)amino)tetrahydro-2H-pyran-2-yl)methyl)-5,6,7,8-tetrahydro-1,5-naphthyridine-2-carboxamide], over 5.00. Regarding `O=C(NC[C@H]1OC[C@H](Nc2cncc(C(F)(F)F)n2)[C@@H](O)[C@H]1O)c1cnc(-c2ccccc2)nc1` [A89], the negative-log Kd (pKd) was over 5.00.

Regarding `O[C@@H]1[C@H](O)[C@@H](Nc2cncc(C(F)(F)F)n2)CO[C@@H]1CN1CCNCC1` [A91, (2R,3R,4R,5S)-2-(piperazin-1-ylmethyl)-5-((6-(trifluoromethyl)pyrazin-2-yl)amino)tetrahydro-2H-pyran-3,4-diol], the negative logarithm of the Kd (pKd) is over 5.00. Consider `NC1CC2(C1)CC(NC(=O)C[C@H]1OC[C@H](Nc3cncc(C(F)(F)F)n3)[C@@H](O)[C@H]1O)C2` (stereo partly drawn) [A92, N-(6-aminospiro[3.3]heptan-2-yl)-2-((2R,3R,4R,5S)-3,4-dihydroxy-5-((6-(trifluoromethyl)pyrazin-2-yl)amino)tetrahydro-2H-pyran-2-yl)acetamide], for which the pKd was over 5.00.

As a reminder, the pKd is −log10 of the Kd, conventionally taken in molar units.
